Data: patent US20260174780A1, “BISMUTH-THIOL COMPOSITIONS AND METHODS FOR TREATING INFLAMMATORY DISEASES” (Microbion Corporation, priority 2022, published 2026)

Legend:
[1] = tested on: M. abscessus strain 19977; experiment: Chronic M. abscessus lung infection in SCID mice, inhaled treatment, lung CFU; assay type: in vivo, SCID/Beige mice
Method: In vivo studies were conducted in mice to separately model chronic M. abscessus infection. The animals were treated for 28 days and grouped according to dosage: vehicle, low dose BisEDT, high dose BisEDT, and amikacin. At the end of treatment, blood, lungs were collected for analysis. […] Histopathology was conducted on lung samples from the in vivo studies.
A total of sixty female SCID/Beige mice between 6-8 weeks of age were used. Mice were placed up to 4 animals per cage and allowed 1 week of acclimation prior to infection.
Inoculums of M. abscessus strain 19977 (MAB) used in this study were made from highly virulent frozen stocks with low passage numbers. Bacteria were allowed to grow to log phase after 4 days on 7H10 media agar plates at 37° C. Once confluent, inoculums were made by suspending bacteria at 10^9 in Hank's balanced salt solution (HBSS) as determined by optical density (O.D.) and further quantified by serial dilution to determine the CFU/mL of suspension. At this higher concentration of bacteria, only 20 μL of inoculum was necessary to deposit […] bacteria per mouse.
On the day of infection mice were anesthetized with isoflurane by the drop jar method. Mice were scruffed in a standard one-handed grip and the nose of the mouse is held of a tube containing gauze containing a small amount of isoflurane. Mice were monitored for breathing and once rapid breaths have slowed down initially the mouse is removed from direct anesthesia and 20 μL of bacterial suspension was deposited on the left nostril. The mice then slowly breath in the droplet. Each mouse was then held in hand until complete consciousness was obtained and then the mouse was replaced into its home cage. After infection was initiated, 3 weeks were allowed to pass in order to allow the bacteria to establish a chronic lung pathology for eventual treatment.
After establishing each infection, 12 mice were euthanized the day before treatment began to determine the baseline bacterial load. Mice were euthanized using CO2 in accordance with the recommendations of the Guide for the Care and Use of Laboratory Animals (NRC 2011). Lungs were collected and homogenized then serial diluted for CFU enumeration.
A nose-only inhalation exposure chamber from CH technologies was used for this experiment. Mice were split into four treatment groups, Vehicle (buffer containing no BisEDT), amikacin (100 μg/kg/day), BisEDT “low” (200 μg/kg/day), and BisEDT “high” (1000 μg/kg/day). Each treatment group consisted of 12 mice. […]
After 28 days of treatment with BisEDT, animals were euthanized by CO2 and secondary cardiac puncture to collect whole blood for quantitation of BisEDT concentration. […] CFUs were determined after serial dilution. […]

[2] = tested on: FITC-induced contact hypersensitivity; experiment: FITC-induced contact hypersensitivity in mice (ear swelling, histopathology, ear cytokines); assay type: in vivo, BALB/c mice
Method: Protocol: Male BALB/c mice at 8 weeks old are used in the study.
All animals, except those in Group 1 (Sham), were sensitized topically (TOP) on the shaved abdominal skin with 200 μL of 0.5% Fluorescein Isothiocyanate (FITC) dissolved in 20% tributyrin in acetone on Days 1 and 2. On Day 7, animals were challenged by applying 20 μL of 0.5% FITC solution onto both sides of the right ear. Animals in Group 1 received nothing.
Vehicle, BisEDT test articles and reference compound (tacrolimus) were administered topically (TOP) once daily (QD) from Day 6 to Day 9 for 4 consecutive days (1 hour before FITC challenge on Day 7). The vehicle for BisEDT was phosphate-buffered saline (PBS).
• 2.5 mg/mL BisEDT topical suspension • 1.25 mg/mL BisEDT topical suspension—prepared as a 1:1 dilution of 2.5 mg/mL BisEDT topical suspension in sterile water and vortexed to ensure homogeneity
Analysis: Ear swelling was measured by an experimenter blinded to treatment group, with a dial thickness micrometer gauge as an index of inflammation 30 min before dosing on Days 7, 8, 9 and 10. On Day 10, ear swelling was measured at 24 hours after the last dosing. Ear edema was calculated by subtracting the thickness of Day 7 (normal control) from Day n (treated ear). Percentage inhibition was calculated according to the formula: (Ic−It)/Ic×100, where Ic and It refer to the increase of ear thickness (mm) both in the control and treated animals. Body weight was recorded daily during the study period.
The animals were sacrificed on Day 10 and the ears were then harvested and weighed. Half of the right ear was fixed in 10% formalin for histopathology, and the other half was processed for cytokine measurement (IL-18, IL-6, and IL-10) using ThermoFisher Mouse ProcartaPlex Kit by Luminex.

[3] = topical, compared to vehicle control

C1C[S][Bi]([S]CC[S][Bi]2[S]CC[S]2)[S]1 [BisEDT, 1,2-(Bis(1,3-dithia-2-bismolane)thio)ethane]
CFU count in lung homogenates ([1]; 200 μg/kg (low)): bacteriostatic effect | CFU count in lung homogenates ([1]; 1000 μg/kg (high) delivered to the lungs): bactericidal | lung CFU, high-dose group vs vehicle control ([1]; 1000 μg/kg/day, p-value=0.0163): statistically significant difference | lung CFU ([1]; inhaled 200 and 1000 μg/kg/day, 28 days, Kruskal-Wallis test): dose-dependent response | overall effect in the FITC-induced contact hypersensitivity model ([2]; mouse, in vivo): overall anti-inflammatory effect | ear swelling ([2]; topical QD x 4, 2.5 and 1.25 mg/mL, compared to vehicle control): statistically significant and dose-dependent reduction | epidermal thickness [2, 3]: significant reduction | histopathological score [2, 3]: significant reduction
